Measured values taken from patent US12358921B2, “Antiviral heterocyclic compounds” (priority 2022, dated 2025).

Assays:
Format in all cases: cell-based
[1] = test system: HUMAN RSV-A (“LONG” STRAIN); test: RSV-A assay (CPE, ATPlite) in Hep-2 cells; conditions: human respiratory syncytial virus, 120 h, MOI 0.1, 5-day incubation
Method in brief: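 Protection from RSV cytopathic effect read by ATP luminescence (ATPlite) after 5-day culture. Genotype A "Long" virus added at MOI 0.1 to Hep-2 monolayers at 8,000 cells/well, pre-dosed with duplicate 2-fold compound dilutions; controls include infected untreated and uninfected wells. EC50 values binned into ranges.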

hMPV A2 TN/94-49 [2] = test: HMPV antiviral assay Method 1 (LLC-MK2 cells, ATP-Lite); conditions: hMPV A2 TN/94-49, LLC-MK2 cells
Method in brief: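 LLC-MK2 cells infected in suspension with hMPV A2 TN/94-49 at MOI 0.005, 5,000 cells/well, in serum-free OptiMEM with 2 μg/mL TPCK-trypsin (final) and CaCl2; compounds in duplicate, 10 points, 2 μM top, 2.5-fold dilutions. After 7 days at 37 °C, cell health by ATP-Lite luminescence; EC50 by four-parameter fit.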

hMPV A2 TN/94-49 [3] = test: HMPV antiviral assay Method 2 (LLC-MK2 cells with CP-100-356, ATP-Lite); conditions: hMPV A2 TN/94-49, LLC-MK2 cells, 4 μM CP-100-356, Method 2
Method in brief: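 The protective effect was measured after 7 days at 37 °C by ATP-Lite luminescence and expressed as % cell health relative to virus-only and cells-only wells, with EC50 from a four-parameter logistic. Cells were LLC-MK2 infected with strain A2 TN/94-49 (MOI 0.16) with final 2 μM CP-100-356 and 2 μg/mL TPCK-trypsin; 10 duplicate concentrations from 200 nM, 2.5-fold steps.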

Compound	EC50 [1]	EC50 (hMPV A2 TN/94-49 [2])	EC50 (hMPV A2 TN/94-49 [3])
COc1cc(C(=O)NC[C@](O)(c2cc3c(c(-c4ccc(F)c(C)c4Cl)n2)OC[C@]3(C)C(N)=O)C2CC2)cc2cn(C3CC3)nc12 [Example 69]	< 200 nM	< 500 nM	< 200 nM
COc1cc(C(=O)NC[C@](O)(c2cc3c(c(-c4ccc(F)c(F)c4C)n2)OC[C@]3(C)C(N)=O)C2CC2)cc2cn(C3CC3)nc12 [Example 70]	< 200 nM	< 500 nM	< 200 nM
CCc1cc(-c2nc([C@@](O)(CNC(=O)c3cc(OC)c4nn(C5CC5)cc4c3)C3CC3)cc3c2OC[C@]3(C)C(N)=O)ccc1F [Example 71]	< 200 nM	> 500 nM	> 200 nM
COc1cc(C(=O)NC[C@@](O)(c2ccccc2)c2cc3c(c(-c4cc(Cl)c(F)cc4F)n2)OC[C@]3(C)C(N)=O)cc2oc(C3CC3)nc12 [Example 85]	–	< 500 nM	< 200 nM
C[C@]1(C(N)=O)COc2c1cc([C@@](O)(CNC(=O)c1ccc3nc(C4CC4)oc3c1)c1ccccc1)nc2-c1cc(Cl)c(F)cc1F [Example 88]	< 200 nM	< 500 nM	< 200 nM
COc1cc(C(=O)NC[C@@](O)(c2ccccc2)c2cc3c(c(-c4cc(Cl)c(F)cc4F)n2)OC[C@]3(C)C(N)=O)cc2cc(C)nnc12 [Example 89]	< 200 nM	< 500 nM	< 200 nM
COc1cc(C(=O)NC[C@@](O)(c2ccccc2)c2cc3c(c(-c4cc(Cl)c(F)cc4F)n2)OC[C@]3(C)C(N)=O)cc2cc(C3CC3)nnc12 [Example 90]	< 200 nM	< 500 nM	< 200 nM
COc1cc(C(=O)NC[C@@](O)(c2ccc(C(F)(F)F)cc2)c2cc3c(c(-c4cc(Cl)c(F)cc4F)n2)OC[C@]3(C)C(N)=O)cc2cn(C3CC3)nc12 [Example 130]	< 200 nM	> 500 nM	> 200 nM

The remaining lines, values ahead:

EC50 [1]	EC50 (hMPV A2 TN/94-49 [2])	EC50 (hMPV A2 TN/94-49 [3])	Compound
< 200 nM	< 500 nM	< 200 nM	COc1cc(C(=O)NC[C@@](O)(c2cccnc2)c2cc3c(c(-c4cc(Cl)c(F)cc4F)n2)OC[C@]3(C)C(N)=O)cc2cn(C3CC3)nc12 [Example 131]
< 200 nM	< 500 nM	< 200 nM	COc1cc(C(=O)NC[C@@](O)(c2cccc(F)c2)c2cc3c(c(-c4cc(Cl)c(F)cc4F)n2)OC[C@]3(C)C(N)=O)cc2cn(C3CC3)nc12 [Example 132]
< 200 nM	< 500 nM	< 200 nM	COc1cc(C(=O)NC[C@@](O)(c2cccc(F)c2)c2cc3c(c(-c4cc(Cl)c(F)cc4F)n2)OC[C@]3(C)C(N)=O)cc2cc(C3CC3)nn12 [Example 133]
< 200 nM	< 500 nM	< 200 nM	[2H]C([2H])([2H])NC(=O)[C@@]1(C)COc2c1cc([C@@](O)(CNC(=O)c1cc(OC)c3nn(C4CC4)cc3c1)c1ccccc1)nc2-c1cc(Cl)c(F)cc1F [Example 140]
< 200 nM	< 500 nM	< 200 nM	COc1cc(C(=O)NC[C@@](O)(c2ccccc2)c2cc3c(c(-c4cc(Cl)ccc4F)n2)OC[C@]3(C)C(N)=O)cc2cn(C3CC3)nc12 [Example 144]
< 200 nM	< 500 nM	< 200 nM	COc1cc(C(=O)NC[C@@](O)(c2ccccc2)c2cc3c(c(-c4cc(Cl)ccc4F)n2)OC[C@]3(C)C(N)=O)cc2cn(C(F)F)nc12 [Example 145]
< 200 nM	< 500 nM	< 200 nM	COc1cc(C(=O)NC[C@@](O)(c2ccccc2)c2cc3c(c(-c4cc(Cl)ccc4F)n2)OC[C@]3(C)C(N)=O)cc2cc(C3CC3)nn12 [Example 146]
< 200 nM	< 500 nM	< 200 nM	COc1cc(C(=O)NC[C@@](O)(c2ccccc2)c2cc3c(c(-c4cc(C(F)(F)F)ccc4F)n2)OC[C@]3(C)C(N)=O)cc2cn(C3CC3)nc12 [Example 147]
< 200 nM	< 500 nM	< 200 nM	COc1cc(C(=O)NC[C@@](O)(c2ccccc2)c2cc3c(c(-c4cc(Cl)c(F)cc4F)n2)OC[C@]3(C)C(N)=O)cc2sc(N)nc12 [Example 157]
< 200 nM	< 500 nM	< 200 nM	COc1cc(C(=O)NC[C@@](O)(c2ccccc2)c2cc3c(c(-c4cc(Cl)c(F)cc4F)n2)OC[C@]3(C)C(N)=O)cc2cn(C3(F)CC3)nc12 [Example 158]
< 200 nM	< 500 nM	< 200 nM	COc1cccc([C@](O)(CNC(=O)c2cc(OC)c3nn(C4CC4)cc3c2)c2cc3c(c(-c4cc(Cl)c(F)cc4F)n2)OC[C@]3(C)C(N)=O)c1 [Example 160]
